The source of these data is patent publication US20230332197A1, “NUCLEOSIDES AND NUCLEOTIDES WITH 3' VINYL BLOCKING GROUP” (Illumina Singapore Pte. Ltd., priority 2022, published 2023).

Data set [1] has as its system DNA polymerases Pol 812, Pol 963, Pol 1558, and Pol 1901. The data set can be described thus: Template-dependent incorporation of nucleotide into primer strand by DNA polymerases, gel electrophoresis. The format is biochemical, 9° N. The conditions noted are these: polymerase 0.12 mg/mL, Mg2+ approximately 4 mM, 60° C. for 10 minutes, template with five A overhang. An excerpt: (§1) In this incorporation experiment, several DNA polymerases were used to test the feasibility of incorporating a 3′vinyl dTTP into a primer strand through template-dependent synthesis. For each test, 3′vinyl dTTP or an unblocked dTTP was exposed to one polymerase in the presence of a template strand having five A nucleotides overhang at the 5′ end, and the complementary primer strand has a fluorescent tag (FAM) at the 5′ end for visualization purposes. The DNA polymerases tested were Pol 812, Pol 963, Pol 1558, and Pol 1901, each at 0.12 mg/mL. The amino acid sequences of these mutants of 9° N polymerases are disclosed, for example, in U.S. Patent Publication Nos. 2020/0131484 A1 and 2020/0181587 A1, both of which are incorporated by reference herein in their entireties. The nucleotides include a 3′vinyl dTTP
(§2) The negative control nucleotide included a vinyl blocking group attached to the nitrogen atom of the T base typically involved in base-pair binding. Thus, it was expected that the negative control nucleotide would not be able to bind with the available adenosine bases of the template strand. The unaltered dTTP, on the other hand, was expected to be incorporated into the primer strand and could therefore act as a control for 5 incorporations.
For each test reaction, Mg^2+ concentration was at approximately 4 mM, while the polymerase of choice was at a concentration of 0.12 mg/mL. […]

In data set [2] the target is T1, commercially available TdT (Bos taurus, UniProt P06526).
T1 construct: purchased
Put plainly: Template-independent enzymatic synthesis of oligonucleotides with TdT, gel electrophoresis. The settings on record: for nucleic acid formed from primer by TdT (extent of nucleotide addition): 5 or 10 minutes at room temperature. The format is biochemical. The procedure: A preliminary test of template-independent synthesis of oligonucleotides using a commercially available TdT was conducted. A primer strand with a FAM fluorescent tag at the 5′ end (SED ID No. 2) was introduced.
Three different nucleotides were included, depending on the test condition: a 3′ vinyl blocked dTTP (“3VT”), a 3′-vinyl blocked dTTP that is pre-heated at 60° C. for 5 minutes (“HVT”), and an unaltered dTTP with 3′ hydroxy (“dT”). HVT condition was used to test the thermal stability of the nucleotide. Each nucleotide was allowed to react with the template in the presence of the TdT for 5 or 10 minutes at room temperature.
A control was run simultaneously, which included a primer with one added nucleotide. […] Without being bound to a particular theory, it is believed that the 3′ blocking group on the 3VT nucleotide prevented synthesis beyond the addition of one nucleotide.

In another data set the test system is Pol 1901. The data set can be described thus: Template-dependent incorporation of nucleotide into primer strand by DNA polymerase, gel electrophoresis. Type of data set: biochemical, 9° N. The settings on record: Pol 1901 0.12 mg/mL, Mg2+ approximately 4 mM, 60° C. for 10 minutes.
Description: as §1, §2
(§3) For each test reaction, Mg^2+ concentration was at approximately 4 mM, while the polymerase of choice was at a concentration of 0.12 mg/mL. The reactions also had 20 μmol of nucleotide, nucleotide 1 or nucleotide 2 as diagrammed, and 4 μmol of the template strand (SEQ ID No. 1) and 4 μmol of the primer strand (SEQ ID No. 2). The reaction was carried at 60° C. for 10 minutes.
(§4) Lanes 4, 7, 10, and 13 show the nucleic acids formed when nucleotide 1 was available. Lanes 5, 8, 11, and 14 show the nucleic acids formed when nucleotide 2 was available. Lanes 6, 9, 12, and […] show the nucleic acids formed when unaltered dTTP was available.

In a further data set the test system is Pol 812. The data set is described as above. The format is biochemical, 9° N. The settings on record: Pol 812 0.12 mg/mL, Mg2+ approximately 4 mM, 60° C. for 10 minutes.
Description: as §1, §2, §3, §4

The test system of the next data set is Pol 1558. The data set is described as above. Type of data set: biochemical, 9° N. The conditions noted are these: Pol 1558 0.12 mg/mL, Mg2+ approximately 4 mM, 60° C. for 10 minutes.
Description: as §1, §2, §3, §4

Data set [3] in a line: Preliminary deblocking test of 3′ vinyl group with tetrazine reagent, HPLC UV absorption at 280 nm. The format is physicochemical. The settings on record: 50 μM substrate, 5 mM methyltetrazine propylamine HCl, 0 to 60 Secs. As for the experimental part: 50 μM of 3′ vinyl thymidine monophosphate (TMP) was deblocked in the presence of 5 mM of methyltetrazine propylamine HCl.

T1 sequence (P06526 whole entry): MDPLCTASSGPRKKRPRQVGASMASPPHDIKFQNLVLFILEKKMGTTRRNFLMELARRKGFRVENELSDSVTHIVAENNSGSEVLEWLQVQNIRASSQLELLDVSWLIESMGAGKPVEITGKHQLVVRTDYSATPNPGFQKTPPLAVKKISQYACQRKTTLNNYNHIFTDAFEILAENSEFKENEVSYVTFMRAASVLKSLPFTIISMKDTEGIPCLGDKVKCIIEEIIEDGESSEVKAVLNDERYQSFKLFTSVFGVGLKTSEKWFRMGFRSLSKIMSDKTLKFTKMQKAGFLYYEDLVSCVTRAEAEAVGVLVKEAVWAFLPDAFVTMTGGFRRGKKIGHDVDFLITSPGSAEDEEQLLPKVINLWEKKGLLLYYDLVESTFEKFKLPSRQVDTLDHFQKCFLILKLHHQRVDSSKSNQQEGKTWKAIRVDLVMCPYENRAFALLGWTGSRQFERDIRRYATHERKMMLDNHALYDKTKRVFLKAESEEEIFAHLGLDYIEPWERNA

Take `Cc1cn([C@H]2C[C@H](O)[C@@H](COP(=O)(O)OP(=O)(O)OP(=O)(O)O)O2)c(=O)[nH]c1=O` [unaltered dTTP, Deoxythymidine triphosphate, reference compound]: the “number of nucleotides incorporated into the primer strand” value in data set [1] was ≤ 5. For the same compound, the “nucleic acid formed from primer by TdT (extent of nucleotide addition)” value in data set [2] is on record as “much longer nucleic acids”.
For `C=CO[C@H]1C[C@H](n2cc(C)c(=O)[nH]c2=O)O[C@@H]1COP(=O)(O)OP(=O)(O)OP(=O)(O)O` [nucleotide 1], the “capability of incorporating the nucleotide into the primer strand, compared among the four polymerases” value with Pol 1901 is “least capable of the four”; in the data set with Pol 812, “best performance”; in the data set on Pol 1558 it was “best performance”. In data set [2], the “nucleic acid formed from primer by TdT (extent of nucleotide addition)” value is reported as “addition of just one additional nucleotide”. For the same compound, the “nucleic acid formed from primer by TdT after pre-heating of the nucleotide (thermal stability)” value in data set [2] (nucleotide pre-heated at 60° C. for 5 minutes, reaction 5 or 10 minutes at room temperature) was “addition of just one additional nucleotide”.
On to `C=C[C@]1(O)C[C@H](n2cc(C)c(=O)[nH]c2=O)O[C@@H]1COP(=O)(O)O` [3′ vinyl thymidine monophosphate (TMP), 3′ vinyl thymidine monophosphate], for which, in data set [3], the “deblocking of 3′ vinyl group to 3′OH TMP over time” value is “all of the 3′vinyl TMP have been consumed or deblocked”.
